Experimental data: patent US20110201569A1, “Methods For Treating Myocardial Disorders” (priority 2009, published 2011)
Entries after “also recorded” stand apart in the source; their conditions may differ.

Columns and labels:
Type in all cases: in vivo, mouse
MMP-9 = test: Gelatine zymography of MMP activity in left ventricular tissue after TAC
Experimental: (§1) 11 to 13 week old male C57BL/6 mice were purchased from Charles River (Germany). Mice were housed in individually ventilated pathogen-free cages with free access to water and standard rodent chow. The animals were handled according to the principles of laboratory animal care (NIH publication No. 85-23, revised 1996), and animal procedures were approved by the local committee for animal care.
The first injection was performed 5 min prior to TAC or sham-operation procedure (described below) and repeated 4, 8, 12, 24, 36, 48 and 60 hrs after surgery. Animals were randomly assigned into two groups, receiving either a tetrasodium salt of the compound of formula 1 (hereinafter “Eritoran tetrasodium”) or placebo. The catheter was flushed with 50 μl 0.9% NaCl before and 100 μl after each injection of 50 μl Eritoran tetrasodium (2.5 mg/ml vehicle; 5 mg/kg bodyweight/application; dosage adopted from Shimamoto et al., Circulation 2006, 114: 1270-1274) or placebo solution. […]
For zymographic measurement of MMP activity, protein isolates from left ventricular tissue (60 μg protein content, isolated with NE-PER protein isolation kit; Pierce®) were mixed with 2× Tris-Glycine SDS sample buffer, and loaded on precast zymogram gels (SDS-PAGE; BioRad, Germany) containing […]. […] Areas of protease activity were detected as transparent bands against blue background. […]

[1] = test system: atrial natriuretic peptide (ANP); test: qRT-PCR of ANP mRNA in left ventricle after TAC/sham
Experimental: as §1
(§2) The first injection was performed 5 min prior to TAC or sham-operation procedure (described below) and repeated 4, 8, 12, 24, 36, 48 and 60 hrs after surgery. […]
(§3) Quantitative real-time PCR analysis was completed. […] RNA was dissolved in 100 μl of RNase-free water, and concentration was determined photometrically (absorbance at 260 nm) before storage at −80° C. […]
(§4) Real-time PCR was performed according to the manufacturer's protocol. […] Each sample was measured in triplicate wells and underwent 40 cycles of amplification on an ABI PRISM® Sequence Detection System (Applied Biosystems). CT values were determined with SDS Software 2.2 (Applied Biosystems) and relative quotients (RQ) were calculated following the ΔΔCT method (RQ target gene/GAPDH).
(§5) Statistics were calculated using Prism 4.05 (GraphPad Software Inc., CA, USA). All values are expressed as mean (M)±SEM. […]

TIMP-4 = test: qRT-PCR of TIMP-4 mRNA in left ventricle after TAC/sham
Experimental: as §1, §2, §3, §4, §5

TIMP-1 = test: qRT-PCR of TIMP-1 mRNA in left ventricle after TAC/sham
Experimental: as §1
The first injection was performed 5 min prior to TAC or sham-operation procedure (described below) and repeated 4, 8, 12, 24, 36, 48 and 60 hrs after surgery. Animals were randomly assigned into two groups, receiving either a tetrasodium salt of the compound of formula 1 (hereinafter “Eritoran tetrasodium”) or placebo. The catheter was flushed with 50 μl 0.9% NaCl before and 100 μl after each injection of 50 μl Eritoran tetrasodium (2.5 mg/ml vehicle; 5 mg/kg bodyweight/application; dosage adopted from Shimamoto et al., Circulation 2006, 114: 1270-1274) or placebo solution.
Treatment groups were separated into two subgroups, undergoing transverse aortic constriction (TAC) or sham operation. […]
as §3, §4
Statistics were calculated using Prism 4.05 (GraphPad Software Inc., CA, USA). All values are expressed as mean (M)±SEM. One-way ANOVA with Newman-Keuls post-hoc testing was performed for statistical analysis with the exception of TIMP and cytokine expression which were analysed with Kruskal-Wallis and Dunn's multiple comparison post-hoc testing Impact of TAC-Eritoran on IL-10 expression was analysed with Two-way ANOVA. […]

[2] = test system: matrix metalloproteinase-9 (MMP-9); test: qRT-PCR of MMP-9 mRNA in left ventricle after TAC/sham
Experimental: as §1, §2, §3, §4, §5

TLR4 = test: qRT-PCR of TLR4 mRNA in left ventricle after TAC/sham
[3] = Example 1, TAC, three days after surgery
[4] = Example 2, TAC treated vs TAC-placebo

Compound | MMP (MMP-9) zymographic activity (MMP-9; [3]) | ANP mRNA expression ([1]; Example 1, TAC, vs TAC placebo, three days after surgery) | TIMP-4 mRNA expression (TIMP-4; Example 1, sham and TAC groups, three days after surgery) | TIMP-1 mRNA expression (TIMP-1; Example 1, TAC, three days after surgery, RQ target gene/GAPDH) | TIMP-1 mRNA expression (TIMP-1; Example 1, sham operation, three days after surgery, RQ target gene/GAPDH) | MMP-9 mRNA level ([2]; Example 1, TAC vs sham within treated groups, three days after surgery) | TLR4 mRNA expression (TLR4; [3]) | TLR4 mRNA expression (TLR4; Example 1, sham operation, three days after surgery) | MMP-9 zymographic activity (MMP-9; [4]) | ANP mRNA expression [1, 4] | TIMP-4 mRNA expression (TIMP-4; [4]) | TIMP-1 mRNA expression (TIMP-1; [4]) | MMP-9 mRNA expression [2, 4] | TLR4 mRNA expression (TLR4; [4])
CCCCCC/C=C\CCCCCCCCCC(=O)N[C@H]1[C@H](OC[C@H]2O[C@H](OP(=O)([O-])[O-])[C@H](NC(=O)CC(=O)CCCCCCCCCCC)[C@@H](OCCCCCCCCCC)[C@@H]2O)O[C@H](COC)[C@@H](OP(=O)([O-])[O-])[C@@H]1OCC[C@@H](CCCCCCC)OC.[Na+].[Na+].[Na+].[Na+] [Eritoran tetrasodium] | attenuated; also recorded: reduced zymographic activity of MMP-9 | markedly decreased BNP but not ANP expression | no significant differences between groups | 23.20±14.52 | 1.16±0.40 | remained unchanged by aortic banding | no significant effects | had no effects on the mRNA expression |  |  |  |  |  | 
CCCCCC/C=C\CCCCCCCCCC(=O)N[C@H]1[C@H](OC[C@H]2O[C@H](OP(=O)(O)O)[C@H](NC(=O)CC(=O)CCCCCCCCCCC)[C@@H](OCCCCCCCCCC)[C@@H]2O)O[C@H](COC)[C@@H](OP(=O)(O)O)[C@@H]1OCC[C@@H](CCCCCCC)OC [compound of formula (I), α-D-Glucopyranose, 3-O-decyl-2-deoxy-6-O-[2-deoxy-3-O-[(3R)-3-methoxydecyl)-6-O-methyl-2-[[(−11Z)-1-oxo-11-octadecenyl)amino]-4-O-phosphono-β-D-glucopyranosyl]-2-[(1,3-dioxotetradecyl)amino]-1-(dihydrogen phosphate)] |  |  |  |  |  |  |  |  | higher in the TAC-placebo animals compared to the TAC groups treated | elevated in TAC-placebo mice compared to sham and the TAC groups treated | higher | higher | higher in the TAC-placebo animals compared to the TAC groups treated | significantly reduced
